Results on 8 molecules are retold here after US10100372B2, “Recombinant RSV reporter virus” (priority 2014, dated 2018).

Like-named read-outs stand apart in the source and are kept apart here.

Data set [1] has as its system recRSV-L19FD489E-fireSMASh. The format is cell-based.
Data set [2] relates to RSV A2 strain. The following applies: cited from earlier work.
For data set [3], the target named is RSV F protein (Human respiratory syncytial virus, UniProt P12568). The following applies: resistance sites in the RSV F protein; cited from earlier work.
Data set [4] relates to recRSV A2-L19F. Type of data set: cell-based. To be noted: increasing compound concentrations.
The test system of data set [5] is recRSV A2-L19F-ren. The format is cell-based. To be noted: GPAR-3710 added later than four hours post-infection; JMN3-003 added eight hours post-infection.
In data set [6] the target is T1, RSV F protein (Human respiratory syncytial virus, UniProt P12568, E66K/H515N/I79M/K191R/N371Y/N80K/T101P/T357K/V557I).
T1 construct: expressed in transfected cells; host or cells: HEp-2 cells infected with recRSV A2-L19F-mKate2; F is expressed from the viral genome, not from a plasmid
The format is cell-based. The following applies: plasmid-based reporter assay. For orientation: In a reporter assay the amount or activity of a reporter protein is the signal.

Data set [7] deals with host cell metabolic activity. To be noted: sourced compound.
In data set [8] the test system is recRSV A2-L19F-renilla. Kind of data set: microbe, parasite or virus in culture. The format is cell-based. The following applies: human respiratory syncytial virus; 0.5 μM concentration counterscreens; read-out: RSV inhibition. Background: Counterscreens check selectivity or assay interference.
The target in data set [9] is T1, RSV F protein. The format is cell-based.
In data set [10] the test system is recRSV A2-L19F. Kind of data set: microbe, parasite or virus in culture. Type of data set: cell-based.
In data set [11] the test system is recRSV-L19FD489E-fireSMASh. The format is cell-based, Respiratory Syncytial Virus. To be noted: 10 μM; 96-well; BEAS-2B.
Setting [12] is: active concentrations based on in vitro assays, when available RSV A2 strain.

Chain of RSV F protein (Human respiratory syncytial virus, UniProt P12568) (P12568 137-574 limits assumed): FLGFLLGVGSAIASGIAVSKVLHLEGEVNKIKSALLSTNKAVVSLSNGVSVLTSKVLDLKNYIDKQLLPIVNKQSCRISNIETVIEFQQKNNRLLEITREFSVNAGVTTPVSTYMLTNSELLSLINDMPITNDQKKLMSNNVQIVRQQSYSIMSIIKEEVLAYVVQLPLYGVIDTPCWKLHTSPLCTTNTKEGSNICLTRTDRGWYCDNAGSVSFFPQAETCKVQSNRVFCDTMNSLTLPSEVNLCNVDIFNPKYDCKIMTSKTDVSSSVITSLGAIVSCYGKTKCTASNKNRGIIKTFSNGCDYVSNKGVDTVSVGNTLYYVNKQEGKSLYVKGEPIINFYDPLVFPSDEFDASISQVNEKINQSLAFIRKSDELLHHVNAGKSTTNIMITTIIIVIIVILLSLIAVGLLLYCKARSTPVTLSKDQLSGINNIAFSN
Chain of RSV F protein (Human respiratory syncytial virus, UniProt P12568) (P12568 26-109 partner limits assumed): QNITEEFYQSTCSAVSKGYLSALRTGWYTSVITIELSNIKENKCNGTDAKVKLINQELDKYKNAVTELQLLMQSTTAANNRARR
T1 sequence (P12568 137-574, looked up, stated change not applied): as the sequence (P12568 137-574 limits assumed) above
T1 sequence (P12568 26-109, looked up, stated change not applied): as the sequence (P12568 26-109 partner limits assumed) above

Consider `C=C[C@@H]1C[C@]1(NC(=O)[C@@H]1C[C@@H](Oc2ncc(OC)c3ccc(Cl)cc23)CN1C(=O)[C@@H](NC(=O)OC(C)(C)C)C(C)(C)C)C(=O)NS(=O)(=O)C1CC1` [ASV, asunaprevir], for which the “effect on progeny virus titers” value in data set [1] (3 μM ASV) is “no effect”. Moreover, in data set [1] (growth in the presence of 3 μM ASV), the “reduction of firefly luciferase activity” value is listed as “approximately 90%”.

What is called EC50 is the concentration that produces a half-maximal response. As to `O=c1n(Cc2nc3ccccc3n2CCCCO)c2cnccc2n1C1CC1` [BMS-433771], the EC50 in [2] was 10 nM. For the same molecule, the reported resistance sites result in [3] is “FF140I FV144A FD392G FK394R FD489Y”.

The inhibition is the percentage by which the read-out fell short of the control. For the molecule `Cc1ccc(-n2c(SCC(=O)N/N=C/c3c4ccccc4cc4ccccc34)nnc2-c2ccccc2)cc1` [GPAR-3710], in [4], the RSV entry rate result is “significant, dose-dependent reduction”. Moreover, the “antiviral activity in time-of-addition study” value in data set [5] is “essentially all antiviral activity was lost”. Further, the “RSV F protein-mediated membrane fusion activity” value in [6] is “specifically and potently inhibited”. Besides, the cytotoxicity result in data set [7] is given as “low cytotoxicity”. Also, in data set [8], the inhibition at 0.5 µM was greater than 90%. In [9] (gradual adaptation to increasing compound concentrations), the “adaptation period until robust resistance (growth in 30 μM compound)” value is no more than 30 days. Also, in [9] (resistance sites in the RSV F protein, identified through viral adaptation), the reported resistance sites result is “FT400A FD401E FD486E FF488I FF488S FD489E”. Besides, the “active concentrations against different RSV strains” value in data set [10] (dose-dependent inhibition of different RSV strains) is reported as “nano- to low micromolar range”. In addition, the EC50 in data set [10] (human respiratory syncytial virus, active concentration based on in vitro assays, RSV entry inhibitor) was determined as 130 nM. Further, the “hit status in co-infection validation assay with pan-resistant RSV-FD489E” value in data set [11] is listed as “did not emerge as hits”.

On to `COc1ccc(-n2c(SC(C)C(=O)Nc3ccc(C)cc3Cl)nc3ccccc32)cc1` (centres unmarked) [JMN3-003], for which, in [5], the “antiviral activity in time-of-addition study” value is “remained potently inhibitory”.

Regarding `Cc1ccc(O)c(Cn2c(NC3CCN(CCN)CC3)nc3c(C)cccc32)n1` [JNJ2408068], in data set [2] (setting [12]), the EC50 was 2.1 nM. Besides, the reported resistance sites result in [3] is on record as “FK399I FD486N FE487D”.

Take `Cc1ccc(O)c(Cn2c(NC3CCN(CCN)CC3)nc3c(C)cccc32)n1` [R170591]: the EC50 in data set [2] (setting [12]) was 2 nM. Moreover, the reported resistance sites result in data set [3] is recorded as “FF488I FF488L FD489Y”.

On to `Cc1ccc(CCCO)c(NCc2ccc3nc(NCCCN4CCOCC4)n(Cc4nc(C)ccc4O)c3c2)c1` [TMC353121], for which the EC50 in data set [2] was 0.13 nM. The reported resistance sites result in [3] is reported as “FK394R FS398L FD486N”.

For the molecule `Cc1nnnn1/N=C/c1ccc(O)c(C(c2ccc(O)cc2)c2cc(/C=N/n3nnnc3C)ccc2O)c1` [VP-14637], the EC50 in [2] (setting [12]) is 1.4 nM. Further, the reported resistance sites result in data set [3] is “FT400A FF488Y”.
